From article PMC8480901 (PLoS ONE, 2021)
Where “and” joins values, the source holds several entries; their conditions need not be identical. Equal values may be shown once.

Tested on: human PBMCs
Test: LPS-induced cytokine and chemokine levels in human PBMC supernatant (Luminex, ELISA)
Type: cell-based
Settings: for TNF-α [pg/mL], Mean / TNF-α [pg/mL], individual value / GM-CSF % reduction / GM-CSF [pg/mL], Mean / GM-CSF [pg/mL], individual value / IL-1β % reduction / IL-1β [pg/mL], Mean / IL-1β [pg/mL], individual value / IL-6 % reduction / IL-6 [pg/mL], Mean / IL-6 [pg/mL], individual value / IL-8 % reduction / IL-8 [pg/mL], Mean / IL-8 [pg/mL], individual value / TNF-α % reduction: LPS-stimulated human PBMC supernatant

For CC[C@H]1OC(=O)[C@H](C)[C@@H](O[C@H]2C[C@@](C)(OC)[C@@H](O)[C@H](C)O2)[C@H](C)[C@@H](O[C@@H]2O[C@H](C)C[C@H](N(C)C)[C@H]2O)[C@](C)(O)C[C@@H](C)CN(C)[C@H](C)[C@@H](O)[C@]1(C)O [Azithromycin], the “TNF-α [pg/mL], Mean” value (0.03 µM) was 11102 pg/mL, the “TNF-α [pg/mL], individual value” (0.03 µM) was 10517 pg/mL and 11687 pg/mL and the GM-CSF % reduction (0.1 µM) was 8%. The “GM-CSF [pg/mL], Mean” value (0.1 µM) was 606 pg/mL, the “GM-CSF [pg/mL], individual value” (0.1 µM) was 616 pg/mL and 597 pg/mL and the IL-1β % reduction (0.1 µM) was 7%. The “IL-1β [pg/mL], Mean” value (0.1 µM) was 11909 pg/mL, the “IL-1β [pg/mL], individual value” (0.1 µM) was 12184 pg/mL and 11633 pg/mL and the IL-6 % reduction (0.1 µM) was 10%. The “IL-6 [pg/mL], Mean” value (0.1 µM) was 31536 pg/mL, the “IL-6 [pg/mL], individual value” (0.1 µM) was 30929 pg/mL and 32144 pg/mL and the IL-8 % reduction (0.1 µM) was -3.72%. The “IL-8 [pg/mL], Mean” value (0.1 µM) was 3056 pg/mL, the “IL-8 [pg/mL], individual value” (0.1 µM) was 3040 pg/mL and 3071 pg/mL and the TNF-α % reduction (0.1 µM) was 8%. For the same compound, the “TNF-α [pg/mL], Mean” value (0.1 µM) was 8220 pg/mL, the “TNF-α [pg/mL], individual value” (0.1 µM) was 7335 pg/mL and 9106 pg/mL and the GM-CSF % reduction (0.3 µM) was 3.39%. The “GM-CSF [pg/mL], Mean” value (0.3 µM) was 635 pg/mL, the “GM-CSF [pg/mL], individual value” (0.3 µM) was 650 pg/mL and 620 pg/mL and the IL-1β % reduction (0.3 µM) was 5%. For the same compound, the “IL-1β [pg/mL], Mean” value (0.3 µM) was 12146 pg/mL, the “IL-1β [pg/mL], individual value” (0.3 µM) was 12820 pg/mL and 11473 pg/mL and the IL-6 % reduction (0.3 µM) was 8%. The “IL-6 [pg/mL], Mean” value (0.3 µM) was 32119 pg/mL, the “IL-6 [pg/mL], individual value” (0.3 µM) was 32538 pg/mL and 31700 pg/mL and the IL-8 % reduction (0.3 µM) was -0.427%. The “IL-8 [pg/mL], Mean” value (0.3 µM) was 3002 pg/mL, the “IL-8 [pg/mL], individual value” (0.3 µM) was 2940 pg/mL and 3064 pg/mL and the TNF-α % reduction (0.3 µM) was 8%. For the same compound, the “TNF-α [pg/mL], Mean” value (0.3 µM) was 8210 pg/mL, the “TNF-α [pg/mL], individual value” (0.3 µM) was 7975 pg/mL and 8445 pg/mL and the GM-CSF % reduction (1 µM) was 6.38%. The “GM-CSF [pg/mL], Mean” value (1 µM) was 616 pg/mL, the “GM-CSF [pg/mL], individual value” (1 µM) was 634 pg/mL and 597 pg/mL and the IL-1β % reduction (1 µM) was 4%. For the same compound, the “IL-1β [pg/mL], Mean” value (1 µM) was 12252 pg/mL, the “IL-1β [pg/mL], individual value” (1 µM) was 12213 pg/mL and 12291 pg/mL and the IL-6 % reduction (1 µM) was -4.52%. The “IL-6 [pg/mL], Mean” value (1 µM) was 36486 pg/mL, the “IL-6 [pg/mL], individual value” (1 µM) was 36508 pg/mL and 36463 pg/mL and the IL-8 % reduction (1 µM) was 0.166%. The “IL-8 [pg/mL], Mean” value (1 µM) was 2992 pg/mL, the “IL-8 [pg/mL], individual value” (1 µM) was 2945 pg/mL and 3040 pg/mL and the TNF-α % reduction (1 µM) was -33%. The “TNF-α [pg/mL], Mean” value (1 µM) was 11913 pg/mL, the “TNF-α [pg/mL], individual value” (1 µM) was 11577 pg/mL and 12250 pg/mL and the GM-CSF % reduction (3 µM) was -8.5%. The “GM-CSF [pg/mL], Mean” value (3 µM) was 713 pg/mL, the “GM-CSF [pg/mL], individual value” (3 µM) was 735 pg/mL and 692 pg/mL and the IL-1β % reduction (3 µM) was -0.234%. For the same compound, the “IL-1β [pg/mL], Mean” value (3 µM) was 12815 pg/mL, the “IL-1β [pg/mL], individual value” (3 µM) was 12810 pg/mL and 12820 pg/mL and the IL-6 % reduction (3 µM) was 4%. For the same compound, the “IL-6 [pg/mL], Mean” value (3 µM) was 33458 pg/mL, the “IL-6 [pg/mL], individual value” (3 µM) was 33827 pg/mL and 33090 pg/mL and the IL-8 % reduction (3 µM) was -3.25%. For the same compound, the “IL-8 [pg/mL], Mean” value (3 µM) was 3048 pg/mL, the “IL-8 [pg/mL], individual value” (3 µM) was 3040 pg/mL and 3056 pg/mL and the TNF-α % reduction (3 µM) was -13%. The “TNF-α [pg/mL], Mean” value (3 µM) was 10076 pg/mL, the “TNF-α [pg/mL], individual value” (3 µM) was 10741 pg/mL and 9410 pg/mL and the GM-CSF % reduction (10 µM) was -18%. The “GM-CSF [pg/mL], Mean” value (10 µM) was 778 pg/mL, the “GM-CSF [pg/mL], individual value” (10 µM) was 790 pg/mL and 767 pg/mL and the IL-1β % reduction (10 µM) was 6%. For the same compound, the “IL-1β [pg/mL], Mean” value (10 µM) was 12046 pg/mL, the “IL-1β [pg/mL], individual value” (10 µM) was 12362 pg/mL and 11731 pg/mL and the IL-6 % reduction (10 µM) was 4.69%. For the same compound, the “IL-6 [pg/mL], Mean” value (10 µM) was 33270 pg/mL, the “IL-6 [pg/mL], individual value” (10 µM) was 35180 pg/mL and 31360 pg/mL and the IL-8 % reduction (10 µM) was 7.45%. The “IL-8 [pg/mL], Mean” value (10 µM) was 2874 pg/mL, the “IL-8 [pg/mL], individual value” (10 µM) was 2884 pg/mL and 2864 pg/mL and the TNF-α % reduction (10 µM) was -22%. The “TNF-α [pg/mL], Mean” value (10 µM) was 10907 pg/mL, the “TNF-α [pg/mL], individual value” (10 µM) was 11897 pg/mL and 9917 pg/mL and the GM-CSF % reduction (30 µM) was -64%. For the same compound, the “GM-CSF [pg/mL], Mean” value (30 µM) was 1076 pg/mL, the “GM-CSF [pg/mL], individual value” (30 µM) was 1120 pg/mL and 1032 pg/mL and the IL-1β % reduction (30 µM) was 22%. The “IL-1β [pg/mL], Mean” value (30 µM) was 10027 pg/mL, the “IL-1β [pg/mL], individual value” (30 µM) was 10517 pg/mL and 9538 pg/mL and the IL-6 % reduction (30 µM) was 2.66%. The “IL-6 [pg/mL], Mean” value (30 µM) was 33980 pg/mL, the “IL-6 [pg/mL], individual value” (30 µM) was 33792 pg/mL and 34168 pg/mL and the IL-8 % reduction (30 µM) was 5%. The “IL-8 [pg/mL], Mean” value (30 µM) was 2917 pg/mL, the “IL-8 [pg/mL], individual value” (30 µM) was 2925 pg/mL and 2908 pg/mL and the TNF-α % reduction (30 µM) was -21%. The “TNF-α [pg/mL], Mean” value (30 µM) was 10839 pg/mL, the “TNF-α [pg/mL], individual value” (30 µM) was 10668 pg/mL and 11009 pg/mL and the GM-CSF % reduction (100 µM) was -161%. For the same compound, the “GM-CSF [pg/mL], Mean” value (100 µM) was 1715 pg/mL, the “GM-CSF [pg/mL], individual value” (100 µM) was 1713 pg/mL and 1717 pg/mL and the IL-1β % reduction (100 µM) was 51%. For the same compound, the “IL-1β [pg/mL], Mean” value (100 µM) was 6242 pg/mL, the “IL-1β [pg/mL], individual value” (100 µM) was 5956 pg/mL and 6528 pg/mL and the IL-6 % reduction (100 µM) was 23%. The “IL-6 [pg/mL], Mean” value (100 µM) was 27053 pg/mL, the “IL-6 [pg/mL], individual value” (100 µM) was 26301 pg/mL and 27804 pg/mL and the “IL-8 [pg/mL], Mean” value (100 µM) was 2975 pg/mL. The “IL-8 [pg/mL], individual value” (100 µM) was 2977 pg/mL and 2972 pg/mL, the TNF-α % reduction (100 µM) was 17% and the “TNF-α [pg/mL], Mean” value (100 µM) was 7409 pg/mL. The “TNF-α [pg/mL], individual value” (100 µM) was 6229 pg/mL and 8589 pg/mL and the “levels of the measured LPS-induced cytokines, chemokines, or MMP-9 in supernatants” value (human PBMCs, concentrations tested (100 μM not shown)) was “little to no reduction”.
